# What was measured:
# [1] = target: T1, E. coli ADC (Escherichia coli, UniProt P21170); experiment: Ultrafiltration of ADC~PLP=AO-Agm complex, then ADC activity assay; format: biochemical; conditions: 15 μM AO-Agm
# T1 construct: The kinetic parameters determined for the partially purified biosynthetic ADC from E. coli; endogenous in cells; host or cells: E. coli DH5α (39-53% ammonium sulphate fraction of the lysate, desalted)
# T1 sequence (P21170 1-658): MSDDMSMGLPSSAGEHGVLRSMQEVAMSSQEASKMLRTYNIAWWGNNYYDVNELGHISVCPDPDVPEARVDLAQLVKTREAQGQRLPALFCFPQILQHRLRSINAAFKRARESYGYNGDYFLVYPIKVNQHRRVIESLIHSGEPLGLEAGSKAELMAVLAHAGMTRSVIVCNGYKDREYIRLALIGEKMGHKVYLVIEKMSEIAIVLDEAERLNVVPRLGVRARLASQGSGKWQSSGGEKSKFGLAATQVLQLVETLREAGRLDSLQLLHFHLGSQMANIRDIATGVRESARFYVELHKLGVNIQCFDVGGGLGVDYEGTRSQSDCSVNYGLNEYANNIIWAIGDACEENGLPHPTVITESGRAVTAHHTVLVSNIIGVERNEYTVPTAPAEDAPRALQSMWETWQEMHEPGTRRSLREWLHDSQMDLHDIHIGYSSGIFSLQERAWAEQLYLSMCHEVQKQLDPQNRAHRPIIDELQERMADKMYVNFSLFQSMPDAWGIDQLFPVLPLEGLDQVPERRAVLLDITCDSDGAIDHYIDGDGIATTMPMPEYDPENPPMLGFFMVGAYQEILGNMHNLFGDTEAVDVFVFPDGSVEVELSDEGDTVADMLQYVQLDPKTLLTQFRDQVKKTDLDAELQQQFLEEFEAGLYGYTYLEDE
# Experimental: Partially purified enzyme preparation was preincubated for 15 min with 15 μM AO-Agm (which produced 100% inhibition) or H2O (control) and 0.1 mM PLP in the assay buffer. The samples were placed on ice, and half of the reactions were filtered through a 3K cutoff ultrafiltration device (Millipore) and washed twice with 600 μL of buffer containing 50 mM Tris-HCl pH 7.4, 1 mM DTT and 0.1 mM PLP. ADC activity was then assayed.
# [2] = system: DU145 prostate cancer cells; experiment: Growth of DU145 cells; format: cell-based; conditions: for Growth: 3 days
# Experimental: (§1) DU145 prostate cancer cells were cultured in high-glucose Dulbecco’s Modified Eagle’s Medium supplemented with 10% heat-inactivated fetal bovine serum, 2 mM L-glutamine and 50 μg/mL gentamycin (all from Sigma-Aldrich). The cells were plated on 6-well plates and allowed to attach overnight. […] The cells were harvested, and the pellet was mixed with 150 μL of 5% sulphosalicylic acid containing 5 μM diaminoheptane (internal standard). Polyamine analysis was carried out as described previously.
# [3] = system: DU145 prostate cancer cells; experiment: Intracellular polyamine pools of DU145 cells; format: cell-based; conditions: 3 days
# Experimental: as §1
# [4] = system: Acremonium chrysogenum high-cephalosporin-yielding (HY) RNCM F-4081D; experiment: Fungal growth inhibition (drop-dilution, CD agar), HY strain; format: cell-based; conditions: Hapsidospora chrysogena, 336 h, read-out: Growth inhibition
# From the text: (§2) Two strains of Acremonium chrysogenum were used in this study: the wild-type (Brotzu) isolate ATCC 11550 (WT) and high-cephalosporin-yielding RNCM F-4081D (HY), derived from the WT [37]. The cultivation conditions were the same as previously described. The filamentous fungi were cultivated on agarized Czapek-Dox (CD) medium (30 g/L sucrose, 2 g/L NaNO3, 1 g/L K2HPO4, 0.5 g/L MgSO4×7 H2O, 0.5 g/L KCl, 0.01 g/L FeSO4×7 H2O, 20 g/L agar, pH 7.0–7.4). To determine the toxic effect of AO-Agm, APA, DFMA and DFMO on the growth of fungal cells the drop-dilution method was used with some modifications as described earlier. Cells were collected from agar slants and diluted with 0.9% NaCl solution up to OD600 = 0.5 (basic concentration), followed by serial tenfold dilutions with the same solution. […] The inoculated Petri dishes were incubated for 21 days at 26 °C. The inhibitory effects of the compounds were measured every three days after inoculation and evaluated by measuring the ratio of colony growth on agarized CD medium supplemented with AO-Agm, APA, DFMA, or DFMO to the growth in the control (agarized CD medium without any additions). The formula: growth inhibition % = [(Dc − Dt)/Dc] × 100, where Dc indicates the colony diameter in control set, and Dt indicates the colony diameter in the treatment set that was used to determine the percent of fungal growth inhibition. The data recorded were measured in triplicate and repeated at least twice.
# [5] = system: Acremonium chrysogenum wild-type (WT) ATCC 11550; experiment: Fungal growth inhibition (drop-dilution, CD agar), WT strain; format: cell-based; conditions: Hapsidospora chrysogena, ATCC11550, 336 h, 5 mM inhibitor, 14 days after inoculation on CD medium
# From the text: as §2
# [6] = AO-Agm 10 μM in the presence of SC (1 mM)
# [7] = AO-Agm 100 μM in the presence of SC (1 mM)
# [8] = AO-Agm 1 mM in the presence of SC (1 mM)
structure (smiles),measurement,setting,value
"N=C(N)NCCCON [AO-Agm, 1-aminooxy-3-guanidinopropane]",inhibition at 15 µM,"[1]; 15 min preincubation, 0.1 mM PLP",100%
same,ADC activity after ultrafiltration and washing of the inhibitory complex,[1]; buffer containing 0.1 mM PLP,fully restored ADC activity
same,Growth,[2]; [6],0.94 ± 0.03 Fold
same,Growth,"[2]; AO-Agm 10 μM, no SC",0.96 ± 0.02 Fold
same,Proliferation and intracellular polyamine pools of DU145 cells,[2]; AO-Agm 0.01 mM and 0.1 mM,without effect
same,Growth,[2]; [7],0.97 ± 0.02 Fold
same,Growth,"[2]; AO-Agm 100 μM, no SC",0.96 ± 0.04 Fold
same,Proliferation of DU145 cells,[2]; AO-Agm 1 mM,moderately inhibited
same,Growth,[2]; [8],0.45 ± 0.01 Fold
same,Growth,"[2]; AO-Agm 1 mM, no SC",0.72 ± 0.04 Fold
same,Put,[3]; [6],922 ± 60 pmol/mg Protein
same,Spd,[3]; [6],6405 ± 61 pmol/mg Protein
same,Spm,[3]; [6],3903 ± 72 pmol/mg Protein
same,Put,"[3]; AO-Agm 10 μM, no SC",1515 ± 98 pmol/mg Protein
same,Spd,"[3]; AO-Agm 10 μM, no SC",7237 ± 73 pmol/mg Protein
same,Spm,"[3]; AO-Agm 10 μM, no SC",3782 ± 55 pmol/mg Protein
same,Put,[3]; [7],954 ± 115 pmol/mg Protein
same,Spd,[3]; [7],6280 ± 122 pmol/mg Protein
same,Spm,[3]; [7],3621 ± 87 pmol/mg Protein
same,Put,"[3]; AO-Agm 100 μM, no SC",1447 ± 43 pmol/mg Protein
same,Spd,"[3]; AO-Agm 100 μM, no SC",7047 ± 155 pmol/mg Protein
same,Spm,"[3]; AO-Agm 100 μM, no SC",3682 ± 152 pmol/mg Protein
same,Spd,[3]; [8],1074 ± 159 pmol/mg Protein
same,Spm,[3]; [8],2389 ± 105 pmol/mg Protein
same,Put,"[3]; AO-Agm 1 mM, no SC",1074 ± 30 pmol/mg Protein
same,Spd,"[3]; AO-Agm 1 mM, no SC",3609 ± 124 pmol/mg Protein
same,Spm,"[3]; AO-Agm 1 mM, no SC",3795 ± 98 pmol/mg Protein
same,inhibition at 5000 µM,[4],49%
same,inhibition at 5000 µM,[5],34%

# From paper PMC7175277, “Hydroxylamine Analogue of Agmatine: Magic Bullet for Arginine Decarboxylase” (Biomolecules, 2020)
